Measurements reported in patent US20030109532A1, “Modulators of dopamine neurotransmission” (priority 2002, published 2003).
Where a name gives a salt, the structure may show the parent alone.

Legend:
rats = experiment: In vivo test: behavior, spontaneous motor activity (distance traveled in motility meter); set-up: species or system rat; details: n=4; for motoractivity in the behavioral assay: 100 μmol/kg s.c., 0-60 min
[1] = system: 3,4-dihydroxyphenylacetic acid (DOPAC) in the striatum; experiment: In vivo test: neurochemistry, 3,4-dihydroxyphenylacetic acid (DOPAC) in the striatum; set-up: species or system rat; details: 100 μmol/kg s.c., n=4
Excerpt: (§1) In vivo Test: Neurochemistry
(§2) After the behavioral activity sessions the rats were decapitated and their brains rapidly taken out and put on an ice-cold petri-dish. The limbic forebrain, the striatum, the frontal cortex and the remaining hemispheral parts of each rat were dissected and frozen. Each brain part was subsequently analyzed with respect to its content of monoamines and their metabolites. The monoaminergic indices analyzed were dopamine (DA), 3,4-dihydroxyphenylacetic acid (DOPAC), homovanillic acid (HVA), 3-methoxytyramine (3-MT), serotonin (5-HT), 5-hydroxyindole acetic acid (5-HIAA), and noradrenaline (NA). All monoaminergic indices in the dissected tissue were analyzed by means of HPLC with electrochemical detection as described by Svensson K, et al., 1986, NaunynSchmiedeberg's Arch Pharmacol 334: 234-245 and references cited therein.

[2] = system: serotonin in the striatum; experiment: In vivo test: neurochemistry, serotonin (5-HT) in the striatum; set-up: species or system rat; details: n=4
Excerpt: as §1, §2

[3] = system: rats pretreated with d-amphetamine; experiment: In vivo test: behavior, d-amphetamine induced hyperactivity; set-up: species or system rat; details: 100 μmol/kg s.c.; d-amphetamine 1.5 mg/kg s.c. pretreatment, n=4

In the case of `CCCN1CC[C@H](c2cccc(S(C)(=O)=O)c2)[C@H](C)C1` (relative stereo) [Example 4, cis-4-(3-Methanesulfonyl-phenyl)-3-methyl-1-propyl-piperidine], the “motoractivity in the behavioral assay” value (rats) is reported as 4948±577 cm/60 min and the “3,4-dihydroxy-phenylacetic acid in the striatum” value (“3,4-dihydroxy-phenylacetic acid” for short) [1] is reported as 1884±98 ng/g tissue.
With `CCCN1[C@H](C)CN(c2cccc(C(F)(F)F)c2)C[C@@H]1C` [Example 2, cis-2,6-Dimethyl-1-propyl-4-(3-trifluoro-methyl-phenyl)-piperazine] the “serotonin in the striatum” value ([2]; 100 μmol/kg s.c.) was 419±23 ng/g tissue, the “motoractivity in the behavioral assay” value (rats) was 3619±483 cm/60 min and the “3,4-dihydroxy-phenylacetic acid” value [1] was 1388±60 ng/g tissue.
`CCCN1CC[C@H](c2cccc(S(C)(=O)=O)c2)[C@H](C)C1` (relative stereo) (as salt: HCl) [Example 4, cis-4-(3-Methanesulfonyl-phenyl)-3-methyl-1-propyl-piperidine] showed a melting point of 197 °C.
With `CCCN1CCN(c2cccc(C(F)(F)F)c2)CC1` [1-propyl-4-(3-triflouro-methyl-phenyl)-piperazine, reference compound] the “serotonin in the striatum” value ([2]; 50 μmol/kg s.c.) was 308±18 ng/g tissue and the “motoractivity in the behavioral assay (behavioral inhibition)” value (rats; 50 μmol/kg s.c.) was 271±137 cm/60 min.
`CCCN1[C@H](C)CN(c2cccc(S(C)(=O)=O)c2)C[C@@H]1C` (as salt: HCl) [Example 3, cis-4-(3-Methanesulfonyl-phenyl)-2,6-dimethyl-1-propyl-piperazine] showed a melting point of 233 °C.
With `CCCN1[C@H](C)CN(c2cccc(S(C)(=O)=O)c2)C[C@@H]1C` [Example 3, cis-4-(3-Methanesulfonyl-phenyl)-2,6-dimethyl-1-propyl-piperazine] the motor activity (rats; 100 μmol/kg, 30-60 min post injection) was 253±73 cm/30 min, the d-amphetamine induced hyperactivity [3] was 2492±530 cm/60 min and the “3,4-dihydroxy-phenylacetic acid” value [1] was 3140±169 ng/g tissue.
